Experiments:
[1] = tested on: reactive oxygen species in neuroblastoma cells; experiment: ROS generation, H2DCFDA staining, fluorescence microscopy; format: cell-based, human; settings: SsnB 10 μM; SH-SY5Y and other neuroblastoma lines; p<0.05
Experimental: The production of reactive oxygen species (ROS) in SsnB-treated neuroblastoma cells was detected by a cell-permeable fluorescence probe H2DCFDA (carboxy-2′,7′-dichlorodihydrofluorescein diacetate) according to the manufacturer's instructions (Invitrogen, Carlsbad, Calif.). Briefly, neuroblastoma cells were cultured in DMEM with 10% FBS in Lab-TekII chamber slides (Fisher Scientific, Pittsburg, Pa.) and treated with SsnB for 2 days (SH-SY5Y and IMR-32 cells), 3 days (NGP cell) or 4 days (SKNF-1 and SK-N-BE(2) cells). […] Cells were washed three times with HBSS, mounted with Vectashield mounting medium (Vector Laboratories), and immediately examined under Nikon-E600 fluorescence microscopy equipped with fluorescein isothiocyanate (FITC) filter. Oxidation of H2DCFDA probe occurs almost exclusively in the cytosol, and generates a fluorescence that is proportional to ROS generation in that cell. […] Cells were trypsinized, washed, and re-suspended in PBS and fluorescence intensity was monitored at excitation wavelength 485 nm and emission wavelength 530 nm with a spectramax spectrophotometer (Molecular Devices, Sunnyvale, Calif.).
To test whether SsnB-induced cell death resulted from increased level of ROS, H2DCFDA staining was performed. […] The carboxy-DCF positive cells were quantitated by imageJ software and plotted. […]

SH-SY5Y tumors = format: in vivo
Experimental: Six-week-old female homozygous athymic nude mice (nu/nu; strain-Crl:NU-Foxn1nu) were purchased from Charles River Laboratories (Wilmington, Mass.), and housed in the University of South Carolina Animal Research Facility. All animal experiments were carried out in compliance with the National Institute of Health (NIH) guidelines and were approved by the Institutional Animal Care and Use Committee (IACUC) of the University of South Carolina. The animals were maintained at 25° C. with a 12-h light/12-h dark cycle in laminar flow cabinets under specific pathogen-free conditions and given sterile water and food ad libitum.
A neuroblastoma xenograft mice model using SH-SY5Y cells was used. To develop localized subcutaneous tumors, 2×10^7 SH-SY5Y cells were mixed 1:1 with matrigel (BD biosciences, San Jose, Calif.) to make 0.1 ml total volume, and cells were injected subcutaneously into the flank region of mice using sterile 27-gauge needle. The animal weight and general appearance were recorded regularly throughout the experiments. On every third day, tumor size was measured with calipers and tumor volume was calculated using the ellipsoid formula (length×width×height×0.5).
Tumor-bearing mice were divided into two groups—(i) control without SsnB treatment, n=4; and (ii) experimental with SsnB treatment (10 mg/kg body weight per mice), n=4. […]
Paraformaldehyde-fixed paraffin-embedded tumor sections (5 μm thick) were deparaffinized in xylene and rehydrated with sequential immersion in graded ethanol (100%, 95%, 85%, 70% and 50%). […] Primary antibodies were detected with secondary antibodies conjugated with fluorescein isothiocyanate (FITC) (1:4000 dilution in 5% IgG-free BSA/PBS) for 2 h at room temperature. After washing with 1×PBS for 4 times (10 min for each washing), sections were mounted with antifade Vectashield mounting media (Vector Laboratories, Burlingame, Calif.), and signals were visualized under Nikon-E600 fluorescence microscope (Nikon, Tokyo, Japan). […]

O=c1occ2c3c(ccc(O)c13)Oc1ccc(O)cc1-2 [SsnB, 8,5′-dihydroxy-4-phenyl-5,2′-oxidoisocoumarin]
number of carboxy-DCF positive cells vs DMSO [1]: significantly increased | average tumor volume (SH-SY5Y tumors; 10 mg/kg body weight daily intraperitoneal, 15 days, control 883.75±68.23 mm^3): 146.5±14.08 mm^3 | cleaved caspase-3 signals in tumors (SH-SY5Y tumors; 10 mg/kg, immunohistochemistry, p<0.05 vs control): significantly detected | TUNEL positive cells in tumors (SH-SY5Y tumors; 10 mg/kg, p<0.05 vs control): increased the number of TUNEL positive cells

From US9446019B2, “Sparstolonin B based pharmaceutical agent for neuroblastoma treatment” (University of South Carolina, priority 2013, dated 2016)
